From patent publication US12545639B2, “3-substituted phenylamidine compounds, preparation and use thereof” (PI INDUSTRIES LTD., priority 2019, dated 2026)

Legend:
Pyricularia oryzae = experiment: microbe, parasite or virus in culture; type: cell-based; settings: 168 h, read-out: control compared to the untreated check (radial growth)
Alternaria solani = Alternaria solani (early blight of tomato/potato) in vitro test, radial growth on potato dextrose agar; type: cell-based; settings: 168 h, 300 ppm in potato dextrose agar, 25° C., 60% relative humidity, seven days, read-out: control compared to the untreated check (radial growth)
[1] = system: Septoria lycopersici/Corynespora cassicola (CORYCA); experiment: Septoria lycopersici/Corynespora cassicola (CORYCA) (leaf spot of tomato) in vitro test, radial growth on potato dextrose agar; type: cell-based; settings: 168 h, 300 ppm in potato dextrose agar, 25° C., 70% relative humidity, seven days, read-out: control compared to the untreated check (radial growth)
Rhizoctonia solani = Rhizoctonia solani (rice sheath blight/potato black scurf) in vitro test, radial growth on potato dextrose agar; type: cell-based; settings: 168 h, 300 ppm in potato dextrose agar, 25° C., 60% relative humidity, seven days, read-out: control compared to the untreated check (radial growth)
Botrytis cinerea = Botrytis cinerea (gray mold) in vitro test, radial growth on potato dextrose agar; type: cell-based; settings: 168 h, 300 ppm in potato dextrose agar, 22° C., 90% relative humidity, seven days, read-out: control compared to the untreated check (radial growth)
Phakopsora pachyrhizi = Phakopsora pachyrhizi test in soybean, preventive, in vivo on plants; settings: in Glycine max, read-out: Efficacy (% control), disease severity compared to the untreated check

CCN(C)C=Nc1cc(OC)cc(Nc2cccc(C(F)(F)F)n2)c1C [Compound 272, N-ethyl-N′-(5-methoxy-2-methyl-3-((6-(trifluoromethyl)pyridin-2-yl)amino)phenyl)-N-methylformimidamide]
≥ 70%: inhibition of growth at 300 ppm (Pyricularia oryzae) | inhibition of growth at 300 ppm (Alternaria solani) | inhibition of growth at 300 ppm [1]

CCN(C)C=Nc1cc(F)cc(Cc2cc(F)ccc2C)c1C [Compound 231, N-ethyl-N′-(5-fluoro-3-(5-fluoro-2-methylbenzyl)-2-methylphenyl)-N-methylformimidamide]
≥ 70%: inhibition of growth at 300 ppm (Pyricularia oryzae) | inhibition of growth at 300 ppm (Rhizoctonia solani) | inhibition of growth at 300 ppm (Botrytis cinerea) | inhibition of growth at 300 ppm (Alternaria solani) | pest or weed control at 500 ppm (Phakopsora pachyrhizi)

CCN(C)C=Nc1cc(F)cc(NCc2ccc(F)c(C)c2)c1C [Compound 182, N-ethyl-N′-(5-fluoro-3-((4-fluoro-3-methylbenzyl)amino)-2-methylphenyl)-N-methylformimidamide]
≥ 70%: inhibition of growth at 300 ppm (Pyricularia oryzae) | inhibition of growth at 300 ppm (Rhizoctonia solani) | inhibition of growth at 300 ppm (Botrytis cinerea) | inhibition of growth at 300 ppm (Alternaria solani) | pest or weed control at 500 ppm (Phakopsora pachyrhizi)

CCN(C)C=Nc1cc(Cl)cc(Nc2ccccc2F)c1C [Compound 165, N′-(5-chloro-3-((2-fluorophenyl)amino)-2-methylphenyl)-N-ethyl-N-methylformimidamide]
≥ 70%: inhibition of growth at 300 ppm (Pyricularia oryzae) | inhibition of growth at 300 ppm (Rhizoctonia solani) | inhibition of growth at 300 ppm (Alternaria solani) | inhibition of growth at 300 ppm [1]

CCN(C)C=Nc1cc(F)cc(Cc2cccc(OC(F)(F)F)c2)c1C [Compound 173, N-ethyl-N′-(5-fluoro-2-methyl-3-(3-(trifluoromethoxy)benzyl)phenyl)-N-methylformimidamide]
≥ 70%: inhibition of growth at 300 ppm (Pyricularia oryzae) | inhibition of growth at 300 ppm (Rhizoctonia solani) | inhibition of growth at 300 ppm (Botrytis cinerea) | inhibition of growth at 300 ppm (Alternaria solani)

CCN(C)C=Nc1cc(F)cc(Cc2ccc(C#N)cc2)c1C [Compound 202, N′-(3-(4-cyanobenzyl)-5-fluoro-2-methylphenyl)-N-ethyl-N-methylformimidamide]
≥ 70%: inhibition of growth at 300 ppm (Pyricularia oryzae) | inhibition of growth at 300 ppm (Rhizoctonia solani) | inhibition of growth at 300 ppm (Botrytis cinerea) | inhibition of growth at 300 ppm (Alternaria solani) | pest or weed control at 500 ppm (Phakopsora pachyrhizi)

CCN(C)C=Nc1cc(F)cc(Cc2ccc(Br)cc2)c1C [Compound 175, N′-(3-(4-bromobenzyl)-5-fluoro-2-methylphenyl)-N-ethyl-N-methylformimidamide]
≥ 70%: inhibition of growth at 300 ppm (Pyricularia oryzae) | inhibition of growth at 300 ppm (Rhizoctonia solani) | inhibition of growth at 300 ppm (Botrytis cinerea) | inhibition of growth at 300 ppm (Alternaria solani)

CCN(C)C=Nc1cc(C)cc(N(C)c2ccc(F)c(F)c2)c1Cl [Compound 81, N′-(2-chloro-3-((3,4-difluorophenyl)(methyl)amino)-5-methylphenyl)-N-ethyl-N-methylformimidamide]
≥ 70%: inhibition of growth at 300 ppm (Botrytis cinerea) | inhibition of growth at 300 ppm (Alternaria solani) | pest or weed control at 500 ppm (Phakopsora pachyrhizi)

CCN(C)C=Nc1cc(F)cc(N(C)c2cccc(Cl)c2)c1C [Compound 33, N′-(3-((3-chlorophenyl)(methyl)amino)-5-fluoro-2-methylphenyl)-N-ethyl-N-methylformimidamide]
≥ 70%: inhibition of growth at 300 ppm (Pyricularia oryzae) | inhibition of growth at 300 ppm (Botrytis cinerea) | inhibition of growth at 300 ppm (Alternaria solani) | pest or weed control at 500 ppm (Phakopsora pachyrhizi)

CCN(C)C=Nc1cc(F)cc(Nc2cccc(C)c2F)c1C [Compound 122, N-ethyl-N′-(5-fluoro-3-((2-fluoro-3-methylphenyl)amino)-2-methylphenyl)-N-methylformimidamide]
≥ 70%: inhibition of growth at 300 ppm (Pyricularia oryzae) | inhibition of growth at 300 ppm (Botrytis cinerea) | pest or weed control at 500 ppm (Phakopsora pachyrhizi)

CCN(C)C=Nc1cc(Cl)cc(N(C)c2cccc(F)c2)c1C [Compound 179, N′-(5-chloro-3-((3-fluorophenyl)(methyl)amino)-2-methylphenyl)-N-ethyl-N-methylformimidamide]
≥ 70%: inhibition of growth at 300 ppm (Pyricularia oryzae) | inhibition of growth at 300 ppm (Botrytis cinerea) | inhibition of growth at 300 ppm (Alternaria solani) | pest or weed control at 500 ppm (Phakopsora pachyrhizi)

CCN(C)C=Nc1cc(F)cc(N(C)c2ccc(F)cc2F)c1C [Compound 80, N′-(3-((2,4-difluorophenyl)(methyl)amino)-5-fluoro-2-methylphenyl)-N-ethyl-N-methylformimidamide]
≥ 70%: inhibition of growth at 300 ppm (Pyricularia oryzae) | inhibition of growth at 300 ppm (Rhizoctonia solani) | inhibition of growth at 300 ppm (Botrytis cinerea) | inhibition of growth at 300 ppm (Alternaria solani) | pest or weed control at 500 ppm (Phakopsora pachyrhizi)

CCN(C)C=Nc1cc(F)cc(Cc2cc(F)ccc2Cl)c1C [Compound 229, N′-(3-(2-chloro-5-fluorobenzyl)-5-fluoro-2-methylphenyl)-N-ethyl-N-methylformimidamide]
≥ 70%: inhibition of growth at 300 ppm (Pyricularia oryzae) | inhibition of growth at 300 ppm (Rhizoctonia solani) | inhibition of growth at 300 ppm (Botrytis cinerea) | inhibition of growth at 300 ppm (Alternaria solani) | pest or weed control at 500 ppm (Phakopsora pachyrhizi)

CCN(C)C=Nc1cc(Cl)cc(Cc2ccccc2OC(F)(F)F)c1C [Compound 247, N′-(5-chloro-2-methyl-3-(2-(trifluoromethoxy)benzyl)phenyl)-N-ethyl-N-methylformimidamide]
≥ 70%: inhibition of growth at 300 ppm (Pyricularia oryzae) | inhibition of growth at 300 ppm (Rhizoctonia solani) | inhibition of growth at 300 ppm (Botrytis cinerea) | inhibition of growth at 300 ppm (Alternaria solani)

CCN(C)C=Nc1cc(Cl)cc(N(C)c2cccc(C)c2)c1C [Compound 160, N′-(5-chloro-2-methyl-3-(methyl(m-tolyl)amino)phenyl)-N-ethyl-N-methylformimidamide]
≥ 70%: inhibition of growth at 300 ppm (Pyricularia oryzae) | inhibition of growth at 300 ppm (Botrytis cinerea) | inhibition of growth at 300 ppm (Alternaria solani) | pest or weed control at 500 ppm (Phakopsora pachyrhizi)

CCN(C)C=Nc1cc(F)cc(N(C)c2ccc(F)c(F)c2)c1C [Compound 83, N′-(3-((3,4-difluorophenyl)(methyl)amino)-5-fluoro-2-methylphenyl)-N-ethyl-N-methylformimidamide]
≥ 70%: inhibition of growth at 300 ppm (Pyricularia oryzae) | inhibition of growth at 300 ppm (Rhizoctonia solani) | inhibition of growth at 300 ppm (Botrytis cinerea) | inhibition of growth at 300 ppm (Alternaria solani)

CCN(C)C=Nc1cc(C)cc(Cc2cc(F)ccc2C)c1Cl [Compound 57, N′-(2-chloro-3-(5-fluoro-2-methylbenzyl)-5-methylphenyl)-N-ethyl-N-methylformimidamide]
≥ 70%: inhibition of growth at 300 ppm (Pyricularia oryzae) | inhibition of growth at 300 ppm (Botrytis cinerea) | inhibition of growth at 300 ppm (Alternaria solani) | pest or weed control at 500 ppm (Phakopsora pachyrhizi)

CCN(C)C=Nc1cc(C)cc(Nc2cccc(OC)c2)c1Cl [Compound 42, N′-(2-chloro-3-((3-methoxyphenyl)amino)-5-methylphenyl)-N-ethyl-N-methylformimidamide]
≥ 70%: inhibition of growth at 300 ppm (Pyricularia oryzae) | inhibition of growth at 300 ppm (Rhizoctonia solani) | inhibition of growth at 300 ppm (Botrytis cinerea) | inhibition of growth at 300 ppm (Alternaria solani) | pest or weed control at 500 ppm (Phakopsora pachyrhizi)

CCN(C)C=Nc1cc(F)cc(Cc2ccccc2OC(F)(F)F)c1C [Compound 170, N-ethyl-N′-(5-fluoro-2-methyl-3-(2-(trifluoromethoxy)benzyl)phenyl)-N-methylformimidamide]
≥ 70%: inhibition of growth at 300 ppm (Pyricularia oryzae) | inhibition of growth at 300 ppm (Rhizoctonia solani) | inhibition of growth at 300 ppm (Botrytis cinerea) | inhibition of growth at 300 ppm (Alternaria solani)

CCN(C)C=Nc1cc(F)cc(Cc2ccc(Br)c(C)c2)c1C [Compound 232, N′-(3-(4-bromo-3-methylbenzyl)-5-fluoro-2-methylphenyl)-N-ethyl-N-methylformimidamide]
≥ 70%: inhibition of growth at 300 ppm (Pyricularia oryzae) | inhibition of growth at 300 ppm (Rhizoctonia solani) | inhibition of growth at 300 ppm (Botrytis cinerea) | inhibition of growth at 300 ppm (Alternaria solani) | pest or weed control at 500 ppm (Phakopsora pachyrhizi)

CCN(C)C=Nc1cc(F)cc(N(C)c2cccc(F)c2)c1C [Compound 32, N-ethyl-N′-(5-fluoro-3-((3-fluorophenyl)(methyl)amino)-2-methylphenyl)-N-methylformimidamide]
≥ 70%: inhibition of growth at 300 ppm (Pyricularia oryzae) | inhibition of growth at 300 ppm (Botrytis cinerea) | inhibition of growth at 300 ppm (Alternaria solani) | pest or weed control at 500 ppm (Phakopsora pachyrhizi)

CCN(C)C=Nc1cc(Cl)cc(Nc2ccccc2C)c1C [Compound 185, N′-(5-chloro-2-methyl-3-(o-tolylamino)phenyl)-N-ethyl-N-methylformimidamide]
≥ 70%: inhibition of growth at 300 ppm (Pyricularia oryzae) | inhibition of growth at 300 ppm (Rhizoctonia solani) | inhibition of growth at 300 ppm (Botrytis cinerea) | inhibition of growth at 300 ppm (Alternaria solani) | pest or weed control at 500 ppm (Phakopsora pachyrhizi)

CCN(C)C=Nc1cc(F)cc(Cc2ccc(F)cc2Br)c1C [Compound 230, N′-(3-(2-bromo-4-fluorobenzyl)-5-fluoro-2-methylphenyl)-N-ethyl-N-methylformimidamide]
≥ 70%: inhibition of growth at 300 ppm (Pyricularia oryzae) | inhibition of growth at 300 ppm (Rhizoctonia solani) | inhibition of growth at 300 ppm (Botrytis cinerea) | inhibition of growth at 300 ppm (Alternaria solani) | pest or weed control at 500 ppm (Phakopsora pachyrhizi)

CCN(C)C=Nc1cc(F)cc(Cc2cccc(C#N)c2)c1C [Compound 174, N′-(3-(3-cyanobenzyl)-5-fluoro-2-methylphenyl)-N-ethyl-N-methylformimidamide]
≥ 70%: inhibition of growth at 300 ppm (Pyricularia oryzae) | inhibition of growth at 300 ppm (Rhizoctonia solani) | inhibition of growth at 300 ppm (Botrytis cinerea) | inhibition of growth at 300 ppm (Alternaria solani)

CCN(C)C=Nc1cc(C)cc(Nc2ccc(Cl)cc2F)c1Cl [Compound 134, N′-(2-chloro-3-((4-chloro-2-fluorophenyl)amino)-5-methylphenyl)-N-ethyl-N-methylformimidamide]
≥ 70%: inhibition of growth at 300 ppm (Pyricularia oryzae) | inhibition of growth at 300 ppm (Rhizoctonia solani) | inhibition of growth at 300 ppm (Botrytis cinerea) | pest or weed control at 500 ppm (Phakopsora pachyrhizi)

CCN(C)C=Nc1cc(F)cc(N(C)c2cccc(C(F)(F)F)n2)c1C [Compound 291, N-ethyl-N′-(5-fluoro-2-methyl-3-(methyl(6-(trifluoromethyl)pyridin-2-yl)amino)phenyl)-N-methylformimidamide]
≥ 70%: inhibition of growth at 300 ppm (Pyricularia oryzae) | inhibition of growth at 300 ppm (Alternaria solani) | inhibition of growth at 300 ppm [1]
